Laboratory results taken from ChEMBL document CHEMBL1151918 (Bioorg Med Chem, 2009).
Where a name gives a salt, the structure may show the parent alone.

Key:
Histamine H4 receptor [1] = target: T1, Histamine H4 receptor (Homo sapiens, UniProt Q9H3N8); experiment: Displacement of [3H]histamine from human histamine H4 receptor expressed in human SK-N-MC cells by liquid scintillation counting; type: cell-based
Histamine H3 receptor = Histamine H3 receptor (Homo sapiens, UniProt Q9Y5N1); experiment: Displacement of [3H]N-alpha-methylhistamine from human histamine H3 receptor expressed in human SK-N-MC cells by liquid scintillation counting; type: cell-based
Histamine H3 receptor, sequence (Q9Y5N1 whole entry): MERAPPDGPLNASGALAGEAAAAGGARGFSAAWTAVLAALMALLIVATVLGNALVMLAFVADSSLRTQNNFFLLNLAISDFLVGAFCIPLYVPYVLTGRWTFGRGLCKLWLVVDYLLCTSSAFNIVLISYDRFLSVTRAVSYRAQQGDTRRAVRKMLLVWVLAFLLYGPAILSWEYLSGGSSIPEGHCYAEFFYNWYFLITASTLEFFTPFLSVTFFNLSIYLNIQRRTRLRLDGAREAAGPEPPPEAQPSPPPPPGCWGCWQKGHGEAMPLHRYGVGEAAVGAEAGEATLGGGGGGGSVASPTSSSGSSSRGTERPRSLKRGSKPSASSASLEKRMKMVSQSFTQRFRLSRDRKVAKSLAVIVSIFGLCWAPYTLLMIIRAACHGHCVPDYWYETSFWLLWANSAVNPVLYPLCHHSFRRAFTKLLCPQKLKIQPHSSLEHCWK

Histamine H4 receptor [2] = target: T1, Histamine H4 receptor; experiment: Antagonist activity at human histamine H4 receptor expressed in human SK-N-MC cells assessed as inhibition of 2-[3-(imidazol-4-yl)-propyl]-1-(4-iodo-benzyl)-isothiourea dihydrobromide-induced intrinsic activity; type: functional, cell-based; conditions: read-out: pA2 (converted)

T1 sequence (Q9H3N8 whole entry): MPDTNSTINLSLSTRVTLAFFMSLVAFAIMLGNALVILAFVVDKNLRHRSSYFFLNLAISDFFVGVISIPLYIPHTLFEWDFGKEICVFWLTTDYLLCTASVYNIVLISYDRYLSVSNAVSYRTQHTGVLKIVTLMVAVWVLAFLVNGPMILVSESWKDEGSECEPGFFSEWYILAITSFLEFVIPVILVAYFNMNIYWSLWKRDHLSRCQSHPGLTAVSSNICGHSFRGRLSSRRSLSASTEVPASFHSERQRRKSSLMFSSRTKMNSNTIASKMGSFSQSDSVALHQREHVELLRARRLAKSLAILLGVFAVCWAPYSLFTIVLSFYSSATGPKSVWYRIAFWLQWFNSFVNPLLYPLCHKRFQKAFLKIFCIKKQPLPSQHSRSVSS

Row | Structure (SMILES) | Ki (Histamine H4 receptor [1]) | Ki (Histamine H3 receptor) | Kb (Histamine H4 receptor [2])
1 | N=C(NCc1ccccc1Cl)SCCCc1c[nH]cn1 | 10 nM | 7.94 nM | 
2 | COc1ccc(CNC(=N)SCCCc2c[nH]cn2)cc1 | 12.6 nM | 7.94 nM | 
3 | Cc1ccc(CCNC(=N)SCCCc2c[nH]cn2)cc1 | 100 nM | 12.6 nM | 
4 | N=C(NCc1ccc(I)cc1)SCCCc1c[nH]cn1 | 10 nM | 3.16 nM | 
5 | N=C(NCCc1ccc(Cl)cc1)SCCCc1c[nH]cn1 | 31.6 nM | 10 nM | 
6 | N=C(NCCC(c1ccccc1)c1ccccc1)SCCCc1c[nH]cn1 | 25.1 nM | 31.6 nM | 
7 | N=C(NCc1ccccc1)SCCCc1c[nH]cn1 | 25.1 nM | 7.94 nM | 20 nM
8 | COc1ccc(CCNC(=N)SCCCc2c[nH]cn2)cc1 | 158 nM | 20 nM | 
9 | N=C(NCc1cccc(Cl)c1)SCCCc1c[nH]cn1 | 15.8 nM | 7.94 nM | 
10 | N=C(NCc1ccc(F)cc1)SCCCc1c[nH]cn1 | 25.1 nM | 5.01 nM | 
11 | Cc1ccc(CNC(=N)SCCCc2c[nH]cn2)cc1 | 25.1 nM | 6.31 nM | 
12 | N=C(NCCc1ccccc1)SCCCc1c[nH]cn1 | 63.1 nM | 20 nM | 
13 | N=C(NCCCc1ccccc1)SCCCc1c[nH]cn1 | 50.1 nM | 10 nM | 
14 | N=C(NCc1ccc(Cl)c(Cl)c1)SCCCc1c[nH]cn1 | 1.58 nM | 6.31 nM | 
15 | N=C(NCc1ccc(Br)cc1)SCCCc1c[nH]cn1 | 10 nM | 2.51 nM | 
16 | N=C(N)SCCCc1c[nH]cn1 | 12.6 nM | 2.51 nM | 
17 | NC(=NCCCCc1ccccc1)SCCCc1cnc[nH]1 | 63.1 nM | 20 nM | 
18 | NC(=NCCCc1cnc[nH]1)NCc1ccccc1 | 25.1 nM | 79.4 nM | 
19 | NC(=NCCc1ccc(Br)cc1)SCCCc1cnc[nH]1 | 39.8 nM | 7.94 nM | 
20 | N=C(NC=C(c1ccccc1)c1ccccc1)NCCCc1c[nH]cn1 | 158 nM | 316 nM | 
21 | NC(=NCc1ccc(Cl)cc1)SCCCc1cnc[nH]1 [CLOBENPROPIT] | 10 nM |  | 
22 | N=C(N)SCCc1cnc[nH]1 [IMETIT] | 6.31 nM | 1.58 nM | 
23 | NC(=NCCc1ccc(I)cc1)SCCCc1cnc[nH]1 [IODOPHENPROPIT HYDROBROMIDE] | 15.8 nM | 7.94 nM | 
